Read-outs that look alike come from different tables or passages of the source.
Legend:
[1] = biological target: T1, human Nav1.6 voltage-gated sodium channels (Homo sapiens, UniProt Q9UQD0); assay: Whole-cell patch-clamp recording of fast inactivation of sodium channels in HEK293 cells transfected with Nav1.6; type: cell-based; conditions: for IC50: read-out: IC50, hyperpolarizing shift in the inactivation voltage
T1 construct: host or cells: HEK293
Description: (§1) The human embryonic kidney cell line (HEK293) transfected with the α subunit of the Nav1.6 sodium channel isoform was kindly provided, under a material transfer agreement, by GlaxoSmithKline R&D (Stevenage, U.K). The cells were cultured in Dulbecco’s modified Eagle’s medium (DMEM)/F12 medium enriched with glutamax, nonessential amino acid solution (MEM, Gibco, 1% w/v), 10% fetal bovine serum, and 0.4 mg/mL Geneticin (G418, Gibco) and maintained at 37 °C in a humidified 95% […]/5% CO2 atmosphere until they reached 80% of confluence, replacing the medium every 2 days. The cells were subcultured in 12-well plates in glass coverslips at a density of 60,000 cells/mL. Twenty-four or 48 h before electrophysiological recordings, the cells were placed at 30 °C to maximize sodium channel expression.[32]
(§2) For electrophysiological recordings, glass coverslips with cells were placed in a recording chamber with 0.5 mL Lockés buffer as the extracellular solution. Recording electrodes were fabricated with borosilicate glass microcapillaries (1.5 outer diameter) and had resistances ranging from 4 to 10 MΩ. Pipettes were filled with an intracellular solution containing 120 mM CsF, 10 mM EGTA, 10 mM HEPES, and 15 mM NaCl and pH adjusted to 7.25 with CsOH. Voltage-gated sodium currents were recorded at room temperature 5 min after reaching the whole-cell configuration with a Multiclamp 700B amplifier and digitalized with the Digidata 1440A (both from Axon Instruments, California, U.S.A.) maintaining the cells at a holding potential (Vhold) of −55 mV. Signals were sampled at 50 kHz after low-pass Bessel filtering at 10 kHz. Compensation circuitry was used to reduce the series resistance by at least 70%. To record the activation of VGSCs, voltage steps from −80 to +80 mV in 10 mV step increments were applied prior to a test pulse of −90 mV. Fast inactivation was measured at 0 mV after prior test pulses of 300 ms duration ranging from −100 to 0 mV in 10 mV voltage step increments after maintaining the holding potential at −90 mV during 10 ms.
(§3) All data are expressed as means ± SEMs of n determinations. Data analysis was performed using GraphPad Prism 8. Statistical comparisons were performed using one-way analysis of variance (ANOVA), followed by post hoc Dunnett̀s tests. p values ≤ 0.05 were considered statistically significant, and IC50 values were determined by fitting the data with a log (inhibitor) vs normalized response model.
(§4) The combination index (CI) was calculated with the Chou–Talalay equation[33] following the formula [drawing 1] 1 where (DX)1 is the IC50 value of CTX3C alone, (DX)2 the IC50 value of BTX-3 alone, and D1 and D2 are the IC50 values of CTX3C and BTX-3, respectively, in combination. According to the Chou–Talalay method, additivity is established if CI = 1, synergism if CI < 1, and antagonism if CI > 1.

[2] = biological target: T1, human Nav1.6 voltage-gated sodium channels; assay: Whole-cell patch-clamp recording of sodium current activation (peak INa, activation voltage) in HEK293 cells transfected with Nav1.6; type: cell-based; conditions: for +10 nM BTX-3 normalized INa (max) / normalized INa (max): control = –1; for normalized INa (max): CTX3C alone; for shift in the activation voltage for CTX3C: vs control
Description: as §1, §2, §3, §4

[3] = biological target: rat brain sodium channels; conditions: cited from earlier work; for Ki: binding affinity to rat brain sodium channels, read-out: inhibitory constant (ki)

T1 sequence (Q9UQD0 whole entry): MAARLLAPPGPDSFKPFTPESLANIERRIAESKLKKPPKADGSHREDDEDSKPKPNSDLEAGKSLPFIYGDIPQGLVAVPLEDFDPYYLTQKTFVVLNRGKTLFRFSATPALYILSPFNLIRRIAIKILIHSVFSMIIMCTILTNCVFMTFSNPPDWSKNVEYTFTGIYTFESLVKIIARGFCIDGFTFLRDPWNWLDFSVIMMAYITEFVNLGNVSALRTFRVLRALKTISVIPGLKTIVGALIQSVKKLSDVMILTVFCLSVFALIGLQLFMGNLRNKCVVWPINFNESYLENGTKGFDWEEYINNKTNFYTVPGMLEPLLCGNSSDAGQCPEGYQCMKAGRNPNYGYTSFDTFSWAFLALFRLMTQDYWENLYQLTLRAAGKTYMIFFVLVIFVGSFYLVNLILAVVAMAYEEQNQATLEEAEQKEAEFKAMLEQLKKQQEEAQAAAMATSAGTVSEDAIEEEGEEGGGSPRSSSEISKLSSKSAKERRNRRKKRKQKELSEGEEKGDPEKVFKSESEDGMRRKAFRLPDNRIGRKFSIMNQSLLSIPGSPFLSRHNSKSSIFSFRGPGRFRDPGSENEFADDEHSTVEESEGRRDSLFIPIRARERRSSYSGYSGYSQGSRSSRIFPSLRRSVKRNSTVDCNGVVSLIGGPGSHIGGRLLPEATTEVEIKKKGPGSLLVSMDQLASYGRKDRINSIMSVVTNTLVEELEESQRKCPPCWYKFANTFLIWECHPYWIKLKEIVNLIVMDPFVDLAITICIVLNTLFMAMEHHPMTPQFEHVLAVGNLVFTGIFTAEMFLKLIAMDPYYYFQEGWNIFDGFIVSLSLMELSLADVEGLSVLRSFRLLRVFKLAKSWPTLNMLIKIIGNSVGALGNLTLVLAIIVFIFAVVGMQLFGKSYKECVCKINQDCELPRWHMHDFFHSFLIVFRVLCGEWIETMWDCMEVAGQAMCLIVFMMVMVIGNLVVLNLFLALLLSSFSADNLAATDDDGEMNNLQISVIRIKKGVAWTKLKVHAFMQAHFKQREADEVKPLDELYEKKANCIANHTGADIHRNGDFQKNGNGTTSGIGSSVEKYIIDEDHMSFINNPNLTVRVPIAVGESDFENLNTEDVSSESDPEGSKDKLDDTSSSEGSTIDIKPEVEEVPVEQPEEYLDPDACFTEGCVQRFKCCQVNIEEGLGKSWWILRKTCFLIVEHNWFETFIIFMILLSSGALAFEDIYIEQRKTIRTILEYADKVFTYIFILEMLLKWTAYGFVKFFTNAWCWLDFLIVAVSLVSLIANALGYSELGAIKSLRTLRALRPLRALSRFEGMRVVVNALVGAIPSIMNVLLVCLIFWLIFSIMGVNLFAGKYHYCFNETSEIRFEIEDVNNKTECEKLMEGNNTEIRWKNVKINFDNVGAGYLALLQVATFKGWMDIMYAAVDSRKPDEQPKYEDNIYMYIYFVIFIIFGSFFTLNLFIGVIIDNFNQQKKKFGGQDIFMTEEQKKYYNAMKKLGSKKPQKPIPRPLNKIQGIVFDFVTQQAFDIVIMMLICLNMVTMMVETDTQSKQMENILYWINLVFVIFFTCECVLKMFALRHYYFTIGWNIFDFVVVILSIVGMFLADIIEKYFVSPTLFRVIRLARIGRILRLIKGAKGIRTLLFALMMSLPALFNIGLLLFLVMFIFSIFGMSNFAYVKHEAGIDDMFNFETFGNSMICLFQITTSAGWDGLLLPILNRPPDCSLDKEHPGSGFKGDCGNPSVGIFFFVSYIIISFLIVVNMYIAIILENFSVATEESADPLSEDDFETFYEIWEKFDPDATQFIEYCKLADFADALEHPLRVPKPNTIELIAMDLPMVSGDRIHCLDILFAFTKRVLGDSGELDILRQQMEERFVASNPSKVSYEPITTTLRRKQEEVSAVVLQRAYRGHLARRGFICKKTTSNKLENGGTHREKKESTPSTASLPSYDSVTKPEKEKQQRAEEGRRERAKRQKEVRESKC

Structure (SMILES): CC1CC2OC3C(CC2OC2CC4OC5CC=CCC6OC7C=CC8OC9C(CC8OC7CC=CC6OC5CC(O)C4(C)OC2C1)OC1CC=CCOC1C9O)OC1C(C)C(C)C2(CCCO2)OC1C(O)C3C (stereo not shown) [CTX3C, ciguatoxin 3C]
- inactivation voltage for CTX3C (V1/2) ([1]; [CTX3C] 0.001 nM): –50.1 ± 4.1 mV
- inactivation voltage for CTX3C (V1/2) ([1]; [CTX3C] 0.01 nM): –47.4 ± 1.4 mV
- inactivation voltage for CTX3C (V1/2) ([1]; [CTX3C] 0.1 nM): –53.4 ± 6.8 mV
- inactivation voltage for CTX3C (V1/2) ([1]; [CTX3C] 1 nM): –54.9 ± 5 mV
- IC50 ([1]; single toxin alone): 306 nM
- agonist profile on the channels (negative displacement in the activation voltage) [2]: full agonist
- effect on maximum INa peak ([2]; 0.17 nM CTX3C): a decrease of the maximum INa peak was elicited
- effect on the activation voltage ([2]; 0.17 nM CTX3C alone): no changes in the activation voltage were observed
- +10 nM BTX-3 normalized INa (max) ([2]; CTX3C 0.0001 nM in the presence of 10 nM BTX-3): –0.89 ± 0.08
- +10 nM BTX-3 normalized INa (max) ([2]; CTX3C 0.001 nM in the presence of 10 nM BTX-3): –0.89 ± 0.13
- +10 nM BTX-3 normalized INa (max) ([2]; CTX3C 0.01 nM in the presence of 10 nM BTX-3): –0.88 ± 0.13
- +10 nM BTX-3 normalized INa (max) ([2]; CTX3C 0.1 nM in the presence of 10 nM BTX-3): –0.90 ± 0.11
- +10 nM BTX-3 normalized INa (max) ([2]; CTX3C 1 nM in the presence of 10 nM BTX-3): –0.68 ± 0.09
- +10 nM BTX-3 normalized INa (max) ([2]; CTX3C 5 nM in the presence of 10 nM BTX-3): –0.46 ± 0.09
- normalized INa (max) ([2]; 0.0001 nM): –0.79 ± 0.05
- normalized INa (max) ([2]; 0.001 nM): –0.62 ± 0.08
- normalized INa (max) ([2]; 0.01 nM): –0.66 ± 0.09
- normalized INa (max) ([2]; 0.1 nM): –0.63 ± 0.09
- normalized INa (max) ([2]; 1 nM): –0.27 ± 0.07
- normalized INa (max) ([2]; 5 nM): –0.32 ± 0.04
- activation voltage for CTX3C ([2]; [CTX3C] 0.0001 nM): –30.0 ± 0 mV
- shift in the activation voltage for CTX3C ([2]; [CTX3C] 0.0001 nM): 0.71 ± 5.4 mV
- activation voltage for CTX3C ([2]; [CTX3C] 0.001 nM): –30.0 ± 0 mV
- activation voltage for CTX3C ([2]; [CTX3C] 0.01 nM): –33.3 ± 3.3 mV
- shift in the activation voltage for CTX3C ([2]; [CTX3C] 0.01 nM): –2.62 ± 5.6 mV
- activation voltage for CTX3C ([2]; [CTX3C] 0.1 nM): –39.0 ± 1.8 mV
- shift in the activation voltage for CTX3C ([2]; [CTX3C] 0.1 nM): –8.29 ± 3.3 mV
- activation voltage for CTX3C ([2]; [CTX3C] 1 nM): –46.7 ± 2.9 mV
- activation voltage for CTX3C ([2]; [CTX3C] 5 nM): –51.67 ± 4.8 mV
- shift in the activation voltage for CTX3C ([2]; [CTX3C] 5 nM): –20.95 ± 4.8 mV
- peak sodium current at −10 mV ([2]; after bath application of 1 nM CTX3C, control −1156 ± 189 pA): −692 ± 372 pA
- increased potency on the activation voltage after combination ([2]; combination of CTX3C and BTX-3 vs each alone): 10 times
- IC50 ([2]; single toxin alone, read-out: IC50, negative shift in the activation voltage): 2.58 nM
- IC50 ([2]; single toxin alone, read-out: IC50, percent inhibition of the peak inward sodium currents (INa)): 0.173 nM
- Ki [3]: 0.47 nM
- higher affinity than that of BTX-3s ([3]; binding to VGSC, at concentrations of 1 nM of the compounds): 20 fold

Structure (SMILES): C[C@@H]1C[C@@H]2O[C@@H]3[C@@H](C)[C@H](O)[C@@H]4O[C@]5(C[C@H](O)CO5)[C@@H](C)[C@H](C)[C@H]4O[C@H]3C[C@H]2O[C@H]2C[C@H]3O[C@H]4C/C=C\C[C@H]5O[C@H]6C=C[C@H]7O[C@H]8[C@H](O)[C@H]9O[C@@H](/C=C/[C@H](O)CO)C=CC[C@@H]9O[C@@H]8C[C@@H]7O[C@@H]6C=C[C@@H]5O[C@@H]4C[C@@H](O)[C@]3(C)O[C@@H]2C1 [ciguatoxin-1B]
- Ki [3]: 0.041 nM
- ki difference relative to BTX-1 ([3]; ciguatoxin-1B vs BTX-1): more than 50 fold

Structure (SMILES): C=C(CO)CC1CC(O)C2(C)OC3CC4OC5CC6(C)OC7(C)CCC8OC9CC%10(C)OC%11C(C)=CC(=O)OC%11CC%10OC9CC(C)C8OC7CC6OC5(C)C/C=C\C4OC3CC2O1 (stereo not shown) [BTX-3, brevetoxin 3]
- IC50 [1]: 4700 nM
- agonist profile on the channels (negative displacement in the activation voltage) [2]: partial agonist
- decrease in the maximum INa at −20 mV [2]: 21.9 ± 10.9%
- decrease of peak sodium current amplitude [2]: 31.2 ± 15%
- increased potency on the activation voltage after combination [2]: 10 times
- maximum INa at −20 mV [2]: −2887.70 ± 402.0 pA
- IC50 ([2]; read-out: IC50, negative shift in the activation voltage): 46.2 nM
- IC50 ([2]; read-out: IC50, percent inhibition of the peak inward sodium currents (INa)): 202 nM

Reference: publication PMC10845145, “Synergistic Effect of Brevetoxin BTX-3 and Ciguatoxin CTX3C in Human Voltage-Gated Nav1.6 Sodium Channels” (Chemical Research in Toxicology, 2023)
